Assay results published in US20150209327A1, “METHODS FOR THE TREATMENT OF OBESITY USING APREMILAST” (Celgene Corporation, priority 2014, published 2015).
Values joined by “and” are separate entries in the source; they are usually repeats but may differ in a detail not shown here. Equal entries are not always repeated.

Tests used:
[1] = Psoriasis (PSOR) Phase 3 Data Pool: weight change; format: in vivo, human; settings: 30 mg BID; for Weight % Change Category 0%, n (%) / Weight % Change Category <−20%, n (%) / Weight % Change Category >0% to ≦5%, n (%) / Weight % Change Category >5% to ≦10%, n (%) / Weight % Change Category >10% to ≦20%, n (%) / Weight % Change Category >20%, n (%) / Weight % Change Category ≧−5% to <0%, n (%) / Weight % Change Category ≧−10% to <−5%, n (%) / Weight % Change Category ≧−20% to <−10%, n (%): Subjects as Treated; for observed weight loss of greater than 10%, subjects n (%): subjects as treated
Description: Apremilast has shown benefit of weight loss in both Phase 2 and Phase 3 Psoriatic Arthritis (PSA) and Psoriasis (PSOR) trials.

[2] = Apremilast Data Pool: weight change; format: in vivo, human; settings: 20 mg BID
Description: Similar results of weight loss were reported for the Apremilast Data Pool. A weight decrease was reported during the Placebo-controlled Period (24 weeks) in 3 (0.2%) subjects who received placebo and 26 (0.9%) subjects who received apremilast, including 8 (0.8%) subject in the APR 20 BID group, and 18 (1.1%) subjects in the APR 30 BID group.
The end-of-period value is the last postbaseline value (only through the Placebo-controlled Period for placebo-treated subjects) including data up to 28 days after the last dose of investigational product but excluding the observational follow-up visit.
The end-of-period value is the last postbaseline value (while subjects were receiving apremilast), including data up to 28 days after the last dose of apremilast but excluding the observational follow-up visit.

[3] = Apremilast-exposure Period, m = 1133
[4] = End of Period (APR, apremilast exposure), Subjects as Initially Treated at Week 0
[5] = End of Period (PBC), Subjects as Initially Treated at Week 0
[6] = End of Period (apremilast exposure), Apremilast Subjects as Treated
[7] = Week 52, Apremilast Subjects as Treated
[8] = Week 78, Apremilast Subjects as Treated
[9] = Apremilast-exposure Period, Apremilast Subjects as Treated, m = 1373
[10] = Placebo-controlled Period, Subjects as Initially Treated at Week 0, m = 900

Compound: CCOc1cc([C@@H](CS(C)(=O)=O)N2C(=O)c3cccc(NC(C)=O)c3C2=O)ccc1OC [Apremilast, (+)-2-[1-(3-ethoxy-4-methoxyphenyl)-2-methylsulfonylethyl]-4-acetylaminoisoindoline-1,3-dione]
- weight decrease reported, subjects n (%) [1]: 18 (1.5%) n (%)
- Weight % Change Category 0%, n (%) [1, 3]: 72 (6.4) n (%)
- Weight % Change Category <−20%, n (%) [1, 3]: 9 (0.8) n (%)
- Weight % Change Category >0% to ≦5%, n (%) [1, 3]: 283 (25.0) n (%)
- Weight % Change Category >5% to ≦10%, n (%) [1, 3]: 61 (5.4) n (%)
- Weight % Change Category >10% to ≦20%, n (%) [1, 3]: 19 (1.7) n (%)
- Weight % Change Category >20%, n (%) [1, 3]: 1 (0.1) n (%)
- Weight % Change Category ≧−5% to <0%, n (%) [1, 3]: 470 (41.5) n (%)
- Weight % Change Category ≧−10% to <−5%, n (%) [1, 3]: 162 (14.3) n (%)
- Weight % Change Category ≧−20% to <−10%, n (%) [1, 3]: 56 (4.9) n (%)
- observed weight loss of greater than 10%, subjects n (%) ([1]; Apremilast-exposure Period): 65(5.7%) n (%)
- Change From Baseline (kg) Median (Min, Max) [1, 4]: −1.00 (−39.4, 22.3) kg
- Weight, kg End of Period Mean ± SD [1, 4]: 91.05 ± 21.694 kg
- Change From Baseline (kg) Mean ± SD ([1]; End of Period (APR, apremilast exposure), Subjects as Initially Treated at Week 0, listed as APR): -1.67 kg and -1.67 ± 5.437 kg
- Change From Baseline (kg) Median (Min, Max) [1, 5]: −1.00 (−34.9, 28.0) kg
- Weight, kg End of Period Mean ± SD [1, 5]: 91.35 ± 21.673 kg
- Change From Baseline (kg) Mean ± SD ([1]; End of Period (PBC), Subjects as Initially Treated at Week 0, listed as APR): -1.45 kg and -1.45 ± 3.891 kg
- Change From Baseline (kg) Mean ± SD [1, 6]: -1.76 ± 5.344 kg
- Change From Baseline (kg) Median (Min, Max) [1, 6]: −1.10 (−39.4, 22.3) kg
- Weight, kg Time Point Mean ± SD [1, 6]: 90.72 ± 21.669 kg
- Change From Baseline (kg) Median (Min, Max) [1, 7]: −1.40 (−39.0, 15.6) kg
- Weight, kg Time Point Mean ± SD [1, 7]: 90.98 ± 22.291 kg
- Change From Baseline (kg) Mean ± SD ([1]; Week 52, Apremilast Subjects as Treated, listed as APR): -1.99 kg and -1.99 ± 5.640 kg
- Change From Baseline (kg) Median (Min, Max) [1, 8]: −2.30 (−28.0, 14.9) kg
- Weight, kg Time Point Mean ± SD [1, 8]: 89.72 ± 22.231 kg
- Change From Baseline (kg) Mean ± SD ([1]; Week 78, Apremilast Subjects as Treated, listed as APR): -2.72 kg and -2.72 ± 5.792 kg
- percentage of subjects with weight change of >−10% to <−5% ([1]; Weeks 0-16): 11.7%
- Weight % Change Category 0%, n (%) ([1]; Weeks 0-16, m = 1127): 108 (9.6) n (%)
- Weight % Change Category <−20%, n (%) ([1]; Weeks 0-16, m = 1127): 2 (0.2) n (%)
- Weight % Change Category >0% to ≦5%, n (%) ([1]; Weeks 0-16, m = 1127): 277 (24.6) n (%)
- Weight % Change Category >5% to ≦10%, n (%) ([1]; Weeks 0-16, m = 1127): 24 (2.1) n (%)
- Weight % Change Category >10% to ≦20%, n (%) ([1]; Weeks 0-16, m = 1127): 6 (0.5) n (%)
- Weight % Change Category >20%, n (%) ([1]; Weeks 0-16, m = 1127): 1 (0.1) n (%)
- Weight % Change Category ≧−5% to <0%, n (%) ([1]; Weeks 0-16, m = 1127): 557 (49.4) n (%)
- Weight % Change Category ≧−10% to <−5%, n (%) ([1]; Weeks 0-16, m = 1127): 132 (11.7) n (%)
- Weight % Change Category ≧−20% to <−10%, n (%) ([1]; Weeks 0-16, m = 1127): 20 (1.8) n (%)
- observed weight loss of greater than 10%, subjects n (%) ([1]; Weeks 0 to 16): 22 (2.0%) n (%)
- body weight of the majority of subjects ([1]; regardless of duration of exposure): maintained their body weight within 0% and 5% of baseline
- observed weight loss of greater than 10%, % subjects ([2]; Apremilast-exposure Period): 4.0%
- weight decrease reported, subjects n (%) ([2]; Apremilast-exposure Period): 17 (1.2%) n (%)
- Weight % Change Category 0%, n (%) [2, 9]: 125 (9.1) n (%)
- Weight % Change Category <−20%, n (%) [2, 9]: 2 (0.1) n (%)
- Weight % Change Category >0% to ≦5%, n (%) [2, 9]: 410 (29.9) n (%)
- Weight % Change Category >5% to ≦10%, n (%) [2, 9]: 56 (4.1) n (%)
- Weight % Change Category >10% to ≦20%, n (%) [2, 9]: 18 (1.3) n (%)
- Weight % Change Category >20%, n (%) [2, 9]: 0 n (%)
- Weight % Change Category ≧−5% to <0%, n (%) [2, 9]: 565 (41.2) n (%)
- Weight % Change Category ≧−10% to <−5%, n (%) [2, 9]: 144 (10.5) n (%)
- Weight % Change Category ≧−20% to <−10%, n (%) [2, 9]: 53 (3.9) n (%)
- observed weight loss of greater than 10%, subjects n (%) ([2]; Placebo-controlled Period): 17 (1.9%) n (%)
- percentage of subjects with weight change of >−10% to <−5% ([2]; Placebo-controlled Period): 9.3%
- weight decrease reported, subjects n (%) ([2]; Placebo-controlled Period (24 weeks)): 8 (0.8%) n (%)
- Weight % Change Category 0%, n (%) [2, 10]: 101 (11.2) n (%)
- Weight % Change Category <−20%, n (%) [2, 10]: 1 (0.1) n (%)
